Assays:
Format in all cases: cell-based
[1] = tested on: mCherry-GAL9 expressing 16HBE cells; assay: GAL9 recruitment assay, 16HBE; details: calculated mean from >3 independent exp.
Protocol: (§1) Experiments assessing GAL9 localization as an indicator for endosomal remodeling were performed as previously described[15] using 8× stablemCherry-GAL9 expressing cell lines, SHSY5Y, U2OS, 16HBE, NCI-H358, HuH7, HepG2, HEK293, and HeLa. For mCherry-GAL9 recruitment, 3,000 or 6,500 cells/well (depending upon cell line) were seeded into 384-well CellCarrier Ultra plates 24 h prior to treatment (PerkinElmer, catalog no. 6007558). An Echo 655T acoustic dispenser (Labcyte) was used for EEE dose-response preparation by transferring to the cell plate. At assay endpoints, cells were PBS washed, 4% paraformaldehyde fixed at room temperature […] (VWR, catalog no. 9713.1000), and nuclei stained with PBS +1 μg/mL Hoechst 33342 (Thermo Fisher Scientific, catalog no. H21492).
(§2) Imaging was performed using a spinning-disk confocal microscope (Yokogawa: CV8000) with a ×20w objective (numerical aperture 1.0). Cells and mCherry-GAL9 structure identification and quantification were done using Columbus image-analysis software (PerkinElmer version 2.9.0). Data processing was done using Spotfire (Tibco version 11.4) and Prism (GraphPad version 9.1.0). Image panels were assembled using the FigureJ plugin for FIJI.[43] All mCherry-GAL9 experiments were performed three times (N = 3) with duplicated wells per treatment (n = 2).

[2] = tested on: mCherry-GAL9 expressing HuH7 cells; assay: GAL9 recruitment assay, HuH7; details: calculated mean from >3 independent exp.
Protocol: as §1, §2

[3] = tested on: mCherry-GAL9 expressing HepG2 cells; assay: GAL9 recruitment assay, HepG2; details: calculated mean from >3 independent exp.
Protocol: as §1, §2

[4] = tested on: mCherry-GAL9 expressing SHSY5Y cells; assay: GAL9 recruitment assay, SHSY5Y; details: calculated mean from >3 independent exp.
Protocol: as §1, §2

[5] = tested on: mCherry-GAL9 expressing HeLa cells; assay: GAL9 recruitment assay, HeLa; details: calculated mean from >3 independent exp.
Protocol: as §1, §2

[6] = tested on: mCherry-GAL9 expressing U2OS cells; assay: GAL9 recruitment assay, U2OS; details: calculated mean from >3 independent exp.
Protocol: as §1, §2

[7] = tested on: HeLa_Luc705 cells (pLuc/705 splice-switching reporter); assay: Functional 705-SSO delivery, luciferase splice-switching assay; details: HeLa-Luc705 + 2 µM SSO; EEE 2.5 - 3 µM; mean from >3 independent experiments
Text: Therefore, next, we functionally screened the SSO delivery in the HeLa_Luc705 reporter cell line. HeLa_Luc705 carries a pLuc/705 splice-switching reporter luciferase gene interrupted by a mutated β-globin intron, which creates a preferentially used cryptic 5′ splice site leading to aberrant splicing. Functional SSO delivery masks the cryptic site, redirecting the splicing machinery to the right splicing site, allowing the measurement of luciferase expression (Figure S1).[25]^,[26]^,[27]^,[28] We used SSO transfection with LF2000 as transfection control and the previously published endosomal escape enhancer CMP05 (here, EEE2) as positive control.[15]
For the assessment of functional SSO therapeutics, a HeLa_Luc705 cell line was grown in DMEM media supplemented with 10% fetal bovine serum (FBS). For most treatments, 10,000 cells/well were seeded in a 96-well plate, 24 h pre-incubated with 1- to 2-μM oligonucleotide, and then treated at the described EEE concentration. At 24 h post-treatment, cells were PBS rinsed and collected for further analysis (treatments and incubation times changed accordingly to the experiment design). Luciferase readout was performed as previously described,[15] using a GloMax 96-well plate microplate luminometer (Promega) immediately after adding 30 μL auto-injected luciferin substrate (Promega Firefly Luciferase Assay System; Thermo Scientific, catalog no. 16174) in a white-walled 96-well plate containing 30 μL 0.1% Triton X-100 (Sigma-Aldrich) cell lysed. Photon exposure time and delay were set to 10 and 2 s after injection. LF2000 was used as the transfection reagent control (Thermo Scientific, catalog no. 11668019). For EEE experiments using 1 or 2 μM SSOs, the control was prepared using lipofection with 100–200 nM SSO; this is to avoid complex induced cell toxicity.
705-SSO was purchased from and synthesized by Integrated DNA Technologies. The 705-SSO sequence was previously published, containing 2′-O-methylated bases and only phosphorothioate-saturated backbone linkages were included.[15] The 705-SSO was high-performance liquid chromatography purified, shipped, and stored in IDTE buffer (10 mM Tris, 0.1 mM EDTA).

[8] = tested on: mCherry-GAL9 expressing NCI-H358 cells; assay: GAL9 recruitment assay, NCI-H358; details: calculated mean from >3 independent exp.
Protocol: as §1, §2

[9] = tested on: mCherry-GAL9 expressing HEK293 cells; assay: GAL9 recruitment assay, HEK293; details: calculated mean from >3 independent exp.
Protocol: as §1, §2

For COc1nn(C2CCN(C)CC2)cc1Nc1ncc(F)c(-n2ccc3ccc(C#N)cc32)n1 [EEE14], which “Gal9 response compared to reference” value ([1]; EEE 0.31 µM) is on record?
Its value is 0.010.

And the “Gal9 response compared to reference” value ([1]; EEE 0.62 µM)?
Its value is 0.013.

What about the “Gal9 response compared to reference” value ([1]; EEE 1.25 µM) of the same compound?
The value was 0.014.

And the “Gal9 response compared to reference” value ([1]; EEE 2.5 µM)?
The value was 0.031.

What about the “Gal9 response compared to reference” value ([1]; EEE 5 µM) of the same compound?
The value was 0.118.

What about the “Gal9 response compared to reference” value ([1]; EEE 10 µM) of the same compound?
Its value is 0.421.

What about the “Gal9 response compared to reference” value ([2]; EEE 0.31 µM) of the same compound?
The value was 0.009.

And the “Gal9 response compared to reference” value ([2]; EEE 0.62 µM)?
The value was 0.007.

And the “Gal9 response compared to reference” value ([2]; EEE 1.25 µM)?
The value was 0.010.

And the “Gal9 response compared to reference” value ([2]; EEE 2.5 µM)?
The value was 0.016.

And the “Gal9 response compared to reference” value ([2]; EEE 5 µM)?
Its value is 0.047.

What about the “Gal9 response compared to reference” value ([2]; EEE 10 µM) of the same compound?
Its value is 0.280.

What about the “Gal9 response compared to reference” value ([3]; EEE 0.31 µM) of the same compound?
Its value is 0.008.

And the “Gal9 response compared to reference” value ([3]; EEE 0.62 µM)?
Its value is 0.005.

And the “Gal9 response compared to reference” value ([3]; EEE 1.25 µM)?
Its value is 0.005.

And the “Gal9 response compared to reference” value ([3]; EEE 2.5 µM)?
The value was 0.005.

What about the “Gal9 response compared to reference” value ([3]; EEE 5 µM) of the same compound?
The value was 0.015.

What about the “Gal9 response compared to reference” value ([3]; EEE 10 µM) of the same compound?
Its value is 0.155.

What about the “Gal9 response compared to reference” value ([4]; EEE 0.31 µM) of the same compound?
The value was 0.013.

What about the “Gal9 response compared to reference” value ([4]; EEE 0.62 µM) of the same compound?
Its value is 0.014.

What about the “Gal9 response compared to reference” value ([4]; EEE 1.25 µM) of the same compound?
The value was 0.017.

What about the “Gal9 response compared to reference” value ([4]; EEE 2.5 µM) of the same compound?
The value was 0.083.

And the “Gal9 response compared to reference” value ([4]; EEE 5 µM)?
The value was 0.403.

And the “Gal9 response compared to reference” value ([4]; EEE 10 µM)?
The value was 0.645.

And the “Gal9 response compared to reference” value ([5]; EEE 0.31 µM)?
Its value is 0.005.

And the “Gal9 response compared to reference” value ([5]; EEE 0.62 µM)?
Its value is 0.005.

What about the “Gal9 response compared to reference” value ([5]; EEE 1.25 µM) of the same compound?
The value was 0.004.

And the “Gal9 response compared to reference” value ([5]; EEE 2.5 µM)?
Its value is 0.006.

What about the “Gal9 response compared to reference” value ([5]; EEE 5 µM) of the same compound?
The value was 0.035.

And the “Gal9 response compared to reference” value ([5]; EEE 10 µM)?
The value was 0.213.

What about the “Gal9 response compared to reference” value ([6]; EEE 0.31 µM) of the same compound?
The value was 0.013.

And the “Gal9 response compared to reference” value ([6]; EEE 0.62 µM)?
Its value is 0.013.

What about the “Gal9 response compared to reference” value ([6]; EEE 1.25 µM) of the same compound?
Its value is 0.015.

What about the “Gal9 response compared to reference” value ([6]; EEE 2.5 µM) of the same compound?
The value was 0.023.

And the “Gal9 response compared to reference” value ([6]; EEE 5 µM)?
Its value is 0.058.

What about the “Gal9 response compared to reference” value ([6]; EEE 10 µM) of the same compound?
The value was 0.232.

What about the “Luciferase expression compared to reference” value [7] of the same compound?
Its value is 0.590.

And the “Gal9 response compared to reference” value ([8]; EEE 0.31 µM)?
The value was 0.015.

What about the “Gal9 response compared to reference” value ([8]; EEE 0.62 µM) of the same compound?
Its value is 0.019.

And the “Gal9 response compared to reference” value ([8]; EEE 1.25 µM)?
Its value is 0.019.

And the “Gal9 response compared to reference” value ([8]; EEE 2.5 µM)?
Its value is 0.026.

And the “Gal9 response compared to reference” value ([8]; EEE 5 µM)?
Its value is 0.073.

What about the “Gal9 response compared to reference” value ([8]; EEE 10 µM) of the same compound?
Its value is 0.457.

And the “Gal9 response compared to reference” value ([9]; EEE 0.31 µM)?
Its value is 0.023.

What about the “Gal9 response compared to reference” value ([9]; EEE 0.62 µM) of the same compound?
The value was 0.019.

And the “Gal9 response compared to reference” value ([9]; EEE 1.25 µM)?
Its value is 0.018.

And the “Gal9 response compared to reference” value ([9]; EEE 2.5 µM)?
Its value is 0.035.

And the “Gal9 response compared to reference” value ([9]; EEE 5 µM)?
Its value is 0.123.

And the “Gal9 response compared to reference” value ([9]; EEE 10 µM)?
The value was 0.443.

Source: paper PMC11999280, “Design and screening of novel endosomal escape compounds that enhance functional delivery of oligonucleotides in vitro” (Molecular Therapy. Nucleic Acids, 2025)
